The record followed here is patent US20240270715A1, “INHIBITORS OF TRANSGLUTAMINASES” (ZEDIRA GMBH, priority 2021, published 2024).

Some results are limits rather than exact numbers.

The nature of data set [1]: Log D by shake flask method (octanol / PBS pH 7.4, HPLC). It counts as physicochemical. The conditions noted are these: octanol / PBS pH 7.4, shake flask; read-out: logD. As for the experimental part:
In order to classify the inventive compounds according to their lipophilicity, Log D values (distribution coefficient) were determined by means of the well-established shake flask method, measuring the partition of a compound between an octanol and phosphate-buffered saline (PBS, pH 7.4) by HPLC.
Compounds with a moderate lipophilicity (Log D values from 0 to 3) are usually advantaged for oral absorption, being in balance between solubility and permeability. However, sophisticated formulation of a compound might improve oral bioavailability for highly lipophilic compounds.

For data set [2], the target named is T1, recombinant human transglutaminase 2 (Homo sapiens, UniProt P21980).
T1 sequence (P21980 1-687): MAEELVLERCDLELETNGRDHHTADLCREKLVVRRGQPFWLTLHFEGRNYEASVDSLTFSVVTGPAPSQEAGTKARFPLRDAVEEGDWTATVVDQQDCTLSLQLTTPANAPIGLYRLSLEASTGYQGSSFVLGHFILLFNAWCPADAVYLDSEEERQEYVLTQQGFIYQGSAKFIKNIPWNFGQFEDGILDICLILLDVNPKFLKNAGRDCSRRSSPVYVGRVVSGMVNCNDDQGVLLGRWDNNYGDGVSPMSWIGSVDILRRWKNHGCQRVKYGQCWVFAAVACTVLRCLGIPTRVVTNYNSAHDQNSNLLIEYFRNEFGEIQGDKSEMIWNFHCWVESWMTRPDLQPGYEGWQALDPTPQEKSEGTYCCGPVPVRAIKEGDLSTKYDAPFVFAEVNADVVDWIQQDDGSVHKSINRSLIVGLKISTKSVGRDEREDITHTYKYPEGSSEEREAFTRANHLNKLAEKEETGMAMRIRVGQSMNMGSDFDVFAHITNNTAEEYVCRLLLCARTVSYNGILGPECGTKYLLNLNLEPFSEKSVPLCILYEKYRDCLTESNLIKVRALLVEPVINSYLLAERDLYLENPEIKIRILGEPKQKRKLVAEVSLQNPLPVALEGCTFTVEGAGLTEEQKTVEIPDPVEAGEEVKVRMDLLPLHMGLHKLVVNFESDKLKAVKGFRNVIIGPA
As to the kind of experiment: Transglutaminase assay: incorporation of dansylcadaverine into dimethylcasein (DCC-assay). The class given is biochemical. The settings on record: recombinant human TG2 10 nM, dansylcadaverine/dimethylcasein; read-out: IC50 TG2. As for the experimental part: To illustrate the advantage of branched alkyl moieties over aromatic moieties, we refer to reference compounds Ref. 2 (ZED1227, U.S. Pat. No. 9,434,763 B2) and Ref. 3 (A8, ZED1047). Inhibition data were determined using the classical fluorescent transamidation assay (dansylcadaverine incorporation into methylated casein, DCC-assay) as described [Büchold, C.; Hils, M.; Gerlach, U.; Weber, J.; Pelzer, C.; Heil, A.; Aeschlimann, D.; Pasternack, R. Features of ZED1227: The First-In-Class Tissue Transglutaminase Inhibitor Undergoing Clinical Evaluation for the Treatment of Celiac Disease. Cells 2022, 11, 1667. https://doi.org/10.3390/cells11101667]. Casein is one of the best known high molecular weight (24 kDa) protein substrates for transglutaminases. Please note, the IC50 value of Ref. 3 (A8) published in U.S. Pat. No. 9,434,763 B2 cannot be compared to the present data, relying on a fluorogenic isopeptidase assay.
To this extent, inhibition data were determined using the classical fluorescent transamidation assay (dansylcadaverine incorporation into methylated casein, DCC-assay) as described in Büchold et al. [Büchold, C.; Hils, M.; Gerlach, U.; Weber, J.; Pelzer, C.; Heil, A.; Aeschlimann, D.; Pasternack, R. Features of ZED1227: The First-In-Class Tissue Transglutaminase Inhibitor Undergoing Clinical Evaluation for the Treatment of Celiac Disease. Cells 2022, 11, 1667. https://doi.org/10.3390/cells11101667]. Casein is one of the best known high molecular weight (24 kDa) protein substrates for transglutaminases. Inhibition data of the inventive compounds was compared with inhibition of compounds disclosed in U.S. Pat. No. 9,434,763 B2, particularly, compound A8, which is denoted herein as Reference 3. It is noteworthy that the IC50 values of compounds A8 published in U.S. Pat. No. 9,434,763 B2 and E16 from U.S. Pat. No. 11,072,634 B2 cannot be compared to the present data, relying on a fluorogenic isopeptidase assay.
For the determination of potency of inhibitors against tissue transglutaminase, the incorporation of dansylcadaverine into dimethylcasein (Zedira product T036, Lorand et al., Anal Biochem, 1971, 44:221-31) was measured using recombinant human transglutaminase 2 (Zedira Product T022).
The tissue transglutaminase is diluted in buffer (50 mM Tris-HCl, 7.5 mM CaCl2, 150 mM NaCl, pH=7.4). The final concentration of TG2 in the assay is 10 nM.
A 10 mM inhibitor stock solution is prepared in DMSO, and from this a serial 1:2-fold dilution series is prepared also in DMSO. Each of the initial dilutions is subsequently diluted 1:50-fold with buffer (50 mM Tris-HCl, 7.5 mM CaCl2, 150 mM NaCl, pH=7.4) to yield the final working dilutions containing 2% (v/v) DMSO. 15 μl of inhibitor working dilution are added per well of a 96 well microtiter plate. As control, 15 μl of a 2% (v/v) DMSO solution prepared using the buffer mentioned above are added per well.
Immediately before starting the assay, 600 μl transglutaminase working solution are added to 11.4 ml assay buffer (50 mM Tris-HCl, 10 mM CaCl2, 10 mM glutathione, 2.5% glycerol, 16.7 μM dansylcadaverine, 4 μM N,N-dimethylcasein, 200 mM NaCl, pH=8.0). 285 μl of this reaction mix are added per well containing the inhibitor.
Increase in fluorescence is measured using λex=330 nm and λemG=500 nm at […] for 30 min. A slope of the increase in fluorescence between 20 and 30 min is calculated for determination of the IC50 value (inhibitor concentration at which 50% of the initial activity is blocked).
Analysis of enzymatic activity is performed by calculation of the slope of an increase in fluorescence intensity. IC50 values are calculated by plotting the enzymatic activity (as percentage from control containing 2% DMSO instead of inhibitor) against the inhibitor concentration. IC50 is defined as the inhibitor concentration blocking 50% of initial enzyme activity.

Data set [3] can be described thus: Caco-2 permeability assay (CacoReady kit). The class given is in vitro ADME. The conditions noted are these: human. The method, then: Permeability coefficients (Papp values) were obtained from Caco-2 barrier studies predicting oral/intestinal bioavailability of the tested compounds. The assays were performed by using CacoReady™ ready-to-use kits from ReadyCell according to the manufacturers protocol.
On the technique in general: Passage across Caco-2 layers is used to estimate intestinal permeability.

For the compound `CCNC(=O)C(=O)CC[C@H](NC(=O)c1cncn1C)C(=O)Nc1cccn(CC(=O)NC23CC4CC(CC(C4)C2)C3)c1=O` [Compound I-1, (S)-N1-ethyl-N6-(1-(2-(1-adamantylamino)-2-oxoethyl)-2-oxo-1,2-dihydropyridin-3-yl)-5-(1-methyl-1H-imidazole-5-carboxamido)-2-oxohexanediamide], the logD – broadly, the decadic logarithm of the distribution of all forms, ionised or not, between an organic phase and buffer at a given pH – in data set [1] is below 1. Also, the IC50 – broadly, the concentration that gives 50% inhibition – in data set [2] was 600 to 3500 nM. The Papp (commonly a coefficient for how fast a substance crosses the barrier) in data set [3] is below 1 ×10⁻⁶ cm/s.
Taken in the same sequence, the figures for `CCNC(=O)C(=O)CC[C@H](NC(=O)c1c[nH]cn1)C(=O)Nc1cccn(CC(=O)NC23CC4CC(CC(C4)C2)C3)c1=O` [Compound I-2, (S)-N1-ethyl-5-(1H-imidazole-4-carboxamido)-N6-(1-(2-(1-adamantylamino)-2-oxoethyl)-2-oxo-1,2-dihydropyridin-3-yl)-2-oxohexanediamide] were below 1, 600 to 3500 nM and below 1 ×10⁻⁶ cm/s.
For the compound `CCNC(=O)C(=O)CC[C@H](NC(=O)c1cncn1C)C(=O)Nc1cccn(CC(=O)N(C)C23CC4CC(CC(C4)C2)C3)c1=O` [Compound I-3, (S)-N1-ethyl-N6-(1-(2-(1-adamantyl(methyl)amino)-2-oxoethyl)-2-oxo-1,2-dihydropyridin-3-yl)-5-(1-methyl-1H-imidazole-5-carboxamido)-2-oxohexanediamide], the logD in data set [1] lay within 1 to 3. In addition, the IC50 in data set [2] fell in the range of 600 to 3500 nM. The compound also showed a Papp in data set [3] below 1 ×10⁻⁶ cm/s.
As for `CCNC(=O)C(=O)CC[C@H](NC(=O)c1cncn1C)C(=O)Nc1cccn(CC(=O)NC23CC4CC(C)(CC(C)(C4)C2)C3)c1=O` [Compound I-4, (S)-N1-ethyl-N6-(1-(2-(3,5-dimethyladamantane-1-amino)-2-oxoethyl)-2-oxo-1,2-dihydropyridin-3-yl)-5-(1-methyl-1H-imidazole-5-carboxamido)-2-oxohexanediamide], the logD in data set [1] was 1 to 3. For the same compound, the IC50 in data set [2] was below 150 nM. The Papp in data set [3] was below 1 ×10⁻⁶ cm/s.
As for `CCNC(=O)C(=O)CC[C@H](NC(=O)c1cncn1C)C(=O)Nc1cccn(CC(=O)NC23CC4CC(CC(CC)(C4)C2)C3)c1=O` [Compound I-5, (S)-N1-ethyl-N6-(1-(2-(3-ethyladamantane-1-amino)-2-oxoethyl)-2-oxo-1,2-dihydropyridin-3-yl)-5-(1-methyl-1H-imidazole-5-carboxamido)-2-oxohexanediamide], in data set [1], the logD was 1 to 3. For the same compound, in data set [2], the IC50 was in the range of 150 to 600 nM. Besides, the apparent permeability coefficient (Papp) in data set [3] was below 1 ×10⁻⁶ cm/s.
With `CCNC(=O)C(=O)CC[C@H](NC(=O)c1cncn1C)C(=O)Nc1cccn(CC(=O)NC23CC4CC(C2)CC(C(F)(F)F)(C4)C3)c1=O` [Compound I-6, (S)-N1-ethyl-N6-(1-(2-(3-trifluoromethyladamantane-1-amino)-2-oxoethyl)-2-oxo-1,2-dihydropyridin-3-yl)-5-(1-methyl-1H-imidazole-5-carboxamido)-2-oxohexanediamide], in data set [1], the log distribution coefficient (logD) was below 1. Further, in data set [2], the IC50 lay within 150 to 600 nM. Further, the apparent permeability coefficient (Papp) in data set [3] is below 1 ×10⁻⁶ cm/s.
For `CCNC(=O)C(=O)CC[C@H](NC(=O)c1cncn1C)C(=O)Nc1cccn(CC(=O)NC23CC4CC(CC(O)(C4)C2)C3)c1=O` [Compound I-7, (S)-N1-ethyl-N6-(1-(2-(3-hydroxyadamantane-1-amino)-2-oxoethyl)-2-oxo-1,2-dihydropyridin-3-yl)-5-(1-methyl-1H-imidazole-5-carboxamido)-2-oxohexanediamide], the logD in data set [1] is below 1. Besides, the IC50 in data set [2] lay in the range of 600 to 3500 nM. The Papp in data set [3] was below 1 ×10⁻⁶ cm/s.
The like results for `CCNC(=O)C(=O)CC[C@H](NC(=O)c1cncn1C)C(=O)Nc1cccn(CC(=O)NC23CC4CC(CC(F)(C4)C2)C3)c1=O` [Compound I-8, (S)-N1-ethyl-N6-(1-(2-(3-fluoroadamantane-1-amino)-2-oxoethyl)-2-oxo-1,2-dihydropyridin-3-yl)-5-(1-methyl-1H-imidazole-5-carboxamido)-2-oxohexanediamide] were, in that order, below 1, 150 to 600 nM and below 1 ×10⁻⁶ cm/s.
Consider `CCNC(=O)C(=O)CC[C@H](NC(=O)c1cncn1C)C(=O)Nc1cccn(CC(=O)NC23CC4CC(CC(Cl)(C4)C2)C3)c1=O` [Compound I-9, (S)-N1-ethyl-N6-(1-(2-(3-chloroadamantane-1-amino)-2-oxoethyl)-2-oxo-1,2-dihydropyridin-3-yl)-5-(1-methyl-1H-imidazole-5-carboxamido)-2-oxohexanediamide], for which, in data set [1], the log distribution coefficient (logD) was below 1. Moreover, the IC50 in data set [2] lay within 150 to 600 nM. This compound also registered an apparent permeability coefficient (Papp) in data set [3] below 1 ×10⁻⁶ cm/s.
As for `CCNC(=O)C(=O)CC[C@H](NC(=O)c1cncn1C)C(=O)Nc1cccn(CC(=O)NC23CC4CC(CC(Br)(C4)C2)C3)c1=O` [Compound I-10, (S)-N1-ethyl-N6-(1-(2-(3-bromoadamantane-1-amino)-2-oxoethyl)-2-oxo-1,2-dihydropyridin-3-yl)-5-(1-methyl-1H-imidazole-5-carboxamido)-2-oxohexanediamide], the log distribution coefficient (logD) in data set [1] is below 1. Further, the concentration for half-maximal inhibition (IC50) in data set [2] was 150 to 600 nM. In data set [3], this compound yielded a Papp below 1 ×10⁻⁶ cm/s.
Taken in the same sequence, the figures for `CCNC(=O)C(=O)CC[C@H](NC(=O)c1cncn1C)C(=O)Nc1cccn(CC(=O)NC23CC4CC(C2)CC(C(=O)OC)(C4)C3)c1=O` [Compound I-11, (S)-N1-ethyl-N6-(1-(2-(3-methyladamantane-3-carboxylate-1-amino)-2-oxoethyl)-2-oxo-1,2-dihydropyridin-3-yl)-5-(1-methyl-1H-imidazole-5-carboxamido)-2-oxohexanediamide] were below 1, 150 to 600 nM and below 1 ×10⁻⁶ cm/s.
